This is an account of results in patent publication US20220227772A1, “DEUTERATED TRIAZOLOPYRIMIDINES” (THE TRUSTEES OF THE UNIVERSITY OF PENNSYLVANIA, priority 2019, published 2022).

Where two headings read alike, the source gives them in different places.

The test system of data set [1] is acetylated α-tubulin in QBI293 cells. The experiment in a line: QBI293 cell-based microtubule stabilization assay, acetyl-tubulin ELISA. The following applies: 4 h incubation. As to the method: (§1) The HEK293 cell subclone, QBI293, was maintained in DMEM supplemented with 10% fetal calf or bovine serum, 1% penicillin/streptomycin antibiotic solution and 1% glutamine at 37° C. in 5% CO2. Cells were plated into 6-well plates at a density of 800,000 cells/well. […] Test compounds were added at multiple concentrations to the test wells and incubated for 4 h. Subsequently, the media was removed and the cells were washed with 1 mL of ice-cold phosphate-buffered saline (PBS). After removal of PBS, 0.2 mL of ice-cold RIPA (0.5% sodium deoxycholate, 0.1% SDS, 1% NP-40, 5 mM EDTA, pH 8.0) containing protease inhibitor mix (1 μg/mL each of pepstatin, leupeptin, TLCK, TPCK and trypsin inhibitor), 1 mM PMSF and 1 μM trichostatin A was added to the wells. The wells were then scraped using a cell scraper and pipetted into 1.5 mL microfuge tubes. The tubes were sonicated with a handheld sonicator at 20× on a power setting of 2, followed by centrifugation for 30 min at 15,000 rpm at […]. Supernatants were removed and quantified for protein concentration and the acetyl-tubulin levels were determined using an ELISA as described.
(§2) The enzyme-linked immunosorbent assay (ELISA) was performed as previously described in Brunden, 2011, Pharmacological Research, 63:341, which is incorporated by reference herein. Briefly, 384-well plates were coated with 12G10 α-tubulin antibody (10 μg/mL; Covance, Princeton, N.J., USA) in 30 μL of cold 0.1 M bicarbonate buffer. 12G10 anti-α-tubulin antibody was originally deposited to the Developmental Studies Hybridoma Bank by Frankel and Nelsen. After overnight incubation at 4° C., the plates were blocked in Block Ace solution (Bio-Rad, Hercules, Calif., USA) for a minimum of 24 hours at 4° C. QBI-293 cell homogenates were diluted in C buffer (0.02 M sodium phosphate, 2 mM EDTA, 0.4 M NaCl, 1% BSA, 0.005% Thimerosal, pH 7.0). Typically, […] dilutions from 266 ng/μL to 22.2 ng/μL for QBI cells were performed and 30 μL of sample were added to wells in duplicate. Plates were sealed, centrifuged, and incubated overnight at 4° C. Following incubation with antigen, wells were aspirated and washed with PBS containing 0.05% Tween-20 and 0.005% thimerosal (PBS-Tween buffer). A horseradish peroxidase (HRP)-acetyl-tubulin reporter antibody was prepared by conjugating acetyl-tubulin primary antibody (Sigma Aldrich; clone 6-11B-1) to HRP using a commercially-available peroxidase labeling kit (Roche Applied Science, Indianapolis, Ind., USA). The HRP-acetyl-tubulin reporter antibody (1:1,000 v/v; Sigma Aldrich) or pre-conjugated HRP-alpha-tubulin (1:5,000 v/v; ProteinTech Group, Chicago, Ill., USA) diluted in C buffer were added to appropriate wells (30 μL per well). The plates were sealed and incubated at room temperature for 4 hours on a platform rocker, followed by washing with PBS-Tween buffer. Peroxidase substrate solution (30 μL; KPL, Gaithersburg, Md., USA) was added to each well and the reaction was quenched after 10 min with 10% phosphoric acid (30 μL). Plates were read on a SpectraMax M5 plate reader at an absorbance of 450 nm. The amount of acetyl- and alpha-tubulin protein in each sample was extrapolated using standard curves generated from serial dilutions of known protein standard (acetyl- or alpha-tubulin) concentrations.
(§3) The compounds were evaluated in a QBI293 cell-based MT assay as described in Kovalevich et al., J. Pharmacol. Exp. Ther., 2016, 357, 432-50, which is incorporated by reference herein. In summary, acetylated α-tubulin and total α-tubulin levels were determined by ELISA in cell lysates after 4 h of incubation with test compound at 1 and 10 μM (Table 1).

The subject of data set [2] is total α-tubulin in QBI293 cells. The experiment in a line: QBI293 cell-based MT assay, alpha-tubulin ELISA. The following applies: 4 h incubation. As to the method: as §1, §2, §3
Data set [3] in a line: Plasma and brain compound levels in wild-type mice. The conditions noted are these: for Kp at 1 h: brain/plasma, read-out: B/P. Format: in vivo, mouse. The protocol: Mouse brains were homogenized in 10 mM ammonium acetate, pH 5.7 (1:2; w/v) using a handheld sonic homogenizer. Mouse plasma was obtained from blood that was collected into a 1.5 mL tube containing 0.5M EDTA solution and which was centrifuged for 10 minutes at 4500 g at […]. Aliquots (50 μL) of brain homogenates (50% w/v in 100 mM NH4OAc pH 5.75) or plasma were mixed with 0.2 ml of acetonitrile, centrifuged at 15,000 g, and the resulting supernatant was used for subsequent LC-MS/MS analysis. Compounds were detected using multiple reaction monitoring (MRM) of their specific collision-induced ion transitions. Samples were separated on an Agilent Zorbax C8 column (3.5 μm, 2.1×50 mm) at 35° C., with mobile phase A of 0.1% (v/v) formic acid, and B of acetonitrile with 0.1% (v/v) formic acid and a gradient of increasing B at 0.4 mL/min. To account for possible matrix effects on analytes, standard curves were generated for each compound from brain homogenate and plasma samples. The standard curve samples were extracted and analyzed in an identical fashion as the corresponding tissue-derived samples, and peak areas were plotted against concentration and a linear regression curve was used to obtain estimated concentrations of the tissue-derived samples using the peak areas. […]

Where [4] appears, read: female, mouse, brain, intraperitoneal, 1 h @ 2.5 mg/kg, read-out: Brain conc.
[5] abbreviates: female, mouse, intraperitoneal, 1 h @ 2.5 mg/kg.
[6] abbreviates: female, mouse, plasma, intraperitoneal, 1 h @ 2.5 mg/kg, read-out: Plasma conc.
The mark [7] stands for this setting: scaled to 5 mg/kg, read-out: Brain conc.
[8] abbreviates: mouse, brain, 1 h @ 5.0 mg/kg, read-out: Brain conc.
Where [9] appears, read: mouse, plasma, 1 h @ 5.0 mg/kg, read-out: Plasma conc.

As to `CC(C)[C@H](C)Nc1c(-c2c(F)cc(F)cc2F)c(Cl)nc2ncnn12` [(S)-5-chloro-N-(3-methylbutan-2-yl)-6-(2,4,6-trifluorophenyl)-[1,2,4]triazolo[1,5-a]pyrimidin-7-amine], the “AcTub (acetylated-tubulin relative to vehicle-treated cells)” value amounted to 1.22 ± 0.10 in data set [1] (1 μM) and 2.46 ± 0.18 in data set [1] (10 μM). Moreover, the “αTub (α-tubulin relative to vehicle-treated cells)” value in data set [2] (1 μM) was found to be 0.94 ± 0.04; in data set [2] (10 μM) it was 0.88 ± 0.02.

Consider `[2H][C@](C)(Nc1c(-c2c(F)cc(F)cc2F)c(Cl)nc2ncnn12)C(C)(C)C` (single isomer, unassigned), for which the results for the concentration at 1 h in data set [3] (setting [4]), in data set [3] (setting [6]) and in data set [3] (setting [7]) were 296 ± 48 nM, 104 ± 14 nM and 592 nM, respectively. Besides, the Kp at 1 h in data set [3] (setting [5]) was determined as 2.9. Also, the Plasma conc. in data set [3] (scaled to 5 mg/kg) is 208 nM. Also, the “AcTub (acetylated-tubulin relative to vehicle-treated cells)” value in data set [1] (1 μM) was 5.71 ± 0.13; in data set [1] (10 μM), 7.69 ± 0.49. The results for the “αTub (α-tubulin relative to vehicle-treated cells)” value in data set [2] (1 μM) and in data set [2] (10 μM) were 1.00 ± 0.03 and 1.05 ± 0.09, respectively.

As for `C[C@H](Nc1c(-c2c(F)cc(F)cc2F)c(Cl)nc2ncnn12)C(C)(C)C` [(S)-5-chloro-N-(3,3-dimethylbutan-2-yl)-6-(2,4,6-trifluorophenyl)-[1,2,4]triazolo[1,5-a]pyrimidin-7-amine], the entries for the “AcTub (acetylated-tubulin relative to vehicle-treated cells)” value in data set [1] (1 μM) and in data set [1] (10 μM) were 1.03 ± 0.01 and 3.05 ± 0.18, respectively. In addition, the “αTub (α-tubulin relative to vehicle-treated cells)” value is 0.80 ± 0.06 in data set [2] (1 μM) and 0.83 ± 0.06 in data set [2] (10 μM).

Take `C[C@@H](Nc1c(-c2c(F)cc(F)cc2F)c(Cl)nc2ncnn12)C(C)(C)C` [(R)-5-chloro-N-(3,3-dimethylbutan-2-yl)-6-(2,4,6-trifluorophenyl)-[1,2,4]triazolo[1,5-a]pyrimidin-7-amine]: the results for the concentration at 1 h in data set [3] (setting [8]) and in data set [3] (setting [9]) were 153 ± 33 nM and 69 ± 11 nM, respectively. For the same molecule, the Kp at 1 h in data set [3] (mouse, 1 h @ 5.0 mg/kg) worked out at 2.2. The “AcTub (acetylated-tubulin relative to vehicle-treated cells)” value in data set [1] (1 μM) came to 5.11 ± 0.47; in data set [1] (10 μM) it was 7.19 ± 0.31. Besides, the “αTub (α-tubulin relative to vehicle-treated cells)” value in data set [2] (1 μM) is on record as 1.00 ± 0.06; in data set [2] (10 μM), 1.03 ± 0.12.

As for `CC(C)[C@@H](C)Nc1c(-c2c(F)cc(F)cc2F)c(Cl)nc2ncnn12` [(R)-5-chloro-N-(3-methylbutan-2-yl)-6-(2,4,6-trifluorophenyl)-[1,2,4]triazolo[1,5-a]pyrimidin-7-amine], the values for the concentration at 1 h in data set [3] (setting [8]) and in data set [3] (setting [9]) were 812 ± 61 nM and 320 ± 93 nM, respectively. Besides, the Kp at 1 h in data set [3] (mouse, 1 h @ 5.0 mg/kg) is 2.5. The “AcTub (acetylated-tubulin relative to vehicle-treated cells)” value in data set [1] (1 μM) was 2.08 ± 0.09; in data set [1] (10 μM) it was 2.54 ± 0.10. For the same molecule, the “αTub (α-tubulin relative to vehicle-treated cells)” value was 1.10 ± 0.20 in data set [2] (1 μM) and 0.91 ± 0.17 in data set [2] (10 μM).

For the molecule `[2H]C(C)(Nc1c(-c2c(F)cc(F)cc2F)c(Cl)nc2ncnn12)C(C)C` (single isomer, unassigned) [5-chloro-N-(3-methylbutan-2-yl-2-d)-6-(2,4,6-trifluorophenyl] [5-chloro-N-(3-methylbutan-2-yl-2-d)-6-(2,4,6-trifluorophenyl)-[1,2,4]triazolo[1,5-a]pyrimidin-7-amine], in data set [3] (scaled to 5 mg/kg), the Plasma conc. is 398 nM. Further, the concentration at 1 h in data set [3] (setting [7]) is given as 1102 nM. Also, the “αTub (α-tubulin relative to vehicle-treated cells)” value in data set [2] (1 μM, enantiomer 1) stood at 1.16 ± 0.04; in data set [2] (1 μM, enantiomer 2), 0.93 ± 0.05; in data set [2] (10 μM, enantiomer 1), 1.20 ± 0.01; in data set [2] (10 μM, enantiomer 2) it was 0.93 ± 0.02.

With `[2H]C(C)(Nc1c(-c2c(F)cc(F)cc2F)c(Cl)nc2ncnn12)C(C)C` (single isomer, unassigned) [5-chloro-N-(3-methylbutan-2-yl-2-d)-6-(2,4,6-trifluorophenyl)-[1,2,4]triazolo[1,5-a]pyrimidin-7-amine], the values for the concentration at 1 h in data set [3] (setting [4]) and in data set [3] (setting [6]) were 551 ± 56 nM and 199 ± 46 nM, respectively. In data set [3] (setting [5]), the Kp at 1 h was found to be 2.8.

`[2H][C@@](C)(Nc1c(-c2c(F)cc(F)cc2F)c(Cl)nc2ncnn12)C(C)(C)C` (single isomer, unassigned): the “AcTub (acetylated-tubulin relative to vehicle-treated cells)” value in data set [1] (1 μM) is 1.10 ± 0.07; in data set [1] (10 μM), 2.92 ± 0.04. The “αTub (α-tubulin relative to vehicle-treated cells)” value in data set [2] (1 μM) worked out at 1.07 ± 0.05; in data set [2] (10 μM), 0.85 ± 0.05.
